Experimental data: US12590130B2, “Bipartite molecules and uses thereof in treating diseases associated with abnormal protein aggregates” (ACADEMIA SINICA, priority 2014, dated 2026)

What was measured:
[1] = Solubility of therapeutic peptides; type: physicochemical
Procedure: In this study, the rational design was tested for HD. Several bipartite therapeutic peptides containing 8 consecutive arginines (8R) attached to a stretch of consecutive glutamines (polyQ) were synthesized and their biological activity of decreasing the aggregation propensity of the mHtt protein was investigated. The length of the polyQ of these bipartite peptides was 5 (8R5Q), 10 (8R10Q), 15 (8R15Q) or 20 (8R20Q) (Table 2).

109QmHtt [2] = experiment: Filter trap assay of aggregated 109QmHtt in Neuro2a cells; type: cell-based
Procedure: (§1) FIG. 4. Testing the ability of therapeutic peptides to decrease mHtt aggregation in Neuro2a cells overexpressing mHtt. Panel A: Filter trap assays and corresponding quantitation of cells (panel B) treated as indicated at 8 hours (T1), 24 hours (T2), or both (T1+2) after transfection with the 109QmHtt construct. […] Panel C: Western blots and quantitation (panel D) of RIPA-soluble (sol) and -insoluble (ins) fractions of Neuro2a cells overexpressing 25QHtt or 109QmHtt and treated as indicated. […] Panel E: Western blot of the 109QmHtt in cells treated as indicated. Note that MG132 blocked the effect of 8R10Q peptide with respect to decreasing insoluble 109QmHtt. Panel F: Quantitation of ratio of 109QmHtt in cells treated MG132 (+) over DMSO (−) in relationship to peptides. Statistical analysis conducted with one way ANOVA, *<0.05, **<0.01, ***<0.001, ns: not significant.
Whether the peptides could modulate the aggregation propensity of mHtt was next investigated.

109QmHtt [3] = experiment: Western blot of RIPA-soluble and -insoluble fractions of Neuro2a lysates; type: cell-based; conditions: peptide-treated samples
Procedure: as §1
For further characterization, Neuro2a lysates were separated into the RIPA-soluble (sol) and insoluble (ins) fractions ([…]). 8R10Q peptide decreased the level of mHtt in both the soluble and insoluble fractions as compared with water, 8R, or the scrambled (s8R10Q) control (FIG. 4, panel D). […]

[4] = tested on: Neuro2a cells expressing 109QmHtt; experiment: Cell growth curve of Neuro2a cells expressing 109QmHtt; type: cell-based, mouse; conditions: 109QmHtt with or without 12.5 μM H2O2; vs 8R or scrambled control
Procedure: (§2) FIG. 5. Therapeutic effect of 8R10Q and 8R15Q in 109QmHtt-expressing cells. Panel A: Cell viability assay by MTT in Neuro2a cells expressing 25QHtt (left) or 109QmHtt (right) treated with H2O2 at 50 μM and the indicated peptide. Panel B: Cell growth curve of Neuro2a cells expressing 25QHtt or 109QmHtt treated with indicated peptide. The cells in right subpanel were further treated with H2O2 at 12.5 μM 16 hours after transfection. 109QmHtt cells growth was slower than that of the 25QHtt cells. 8R10Q treatment rescued the slow growth of Neuro2a cells by 109QmHtt with or without H2O2. Panel C: Micrographs of the phase contrast and fluorescent images of retinoic acid-differentiated Neu2a cells expressing GFP-25QHtt or GFP-109QmHtt (GFP) treated with the indicated peptide. Note the neurites of the differentiated cells. Panel D: Quantitation of the percentage of differentiated cells with neurites. Fewer 109QmHtt-expressing cells had neurites vs. 25QHtt-expressing cells. […] The experiments were conducted in triplicate and repeated twice. Statistical analysis was performed with one way ANOVA, *p<0.05; **p<0.01; ***p<0.001, ns: not significant.
The expression of 109QmHtt reduced the growth of Neuro2a cells, and so did the lower levels of H2O2 (12.5 μM) (FIG. 5, panel B).

[5] = tested on: Neuro2a cells expressing 109QmHtt; experiment: Retinoic acid-induced neurite outgrowth; type: cell-based, mouse; conditions: 109QmHtt cells; vs water or scrambled control
Procedure: as §2
Retinoic acid (RA) induced the differentiation of Neuro2a cells with neurite outgrowth. 109QmHtt decreased the number of cells bearing RA-induced neurites relative to 25QHtt (FIG. 5, panels C and D).

R6/2 transgenic mice = experiment: Neuropathology of R6/2 transgenic mice; type: in vivo, mouse
Description: FIG. 7. Amelioration of neuronal damage of 13 week-old R6/2 mice by 8R10Q peptide. Panel A: Micrographs of the Nissl stain sections of cortex (CTX) of WT and R6/2 mice. The cortex and its thickness are highlighted by the dashed lines and red solid lines, respectively. Panel B: Quantitation of the cortical thickness. Note the decrease in cortical thickness in R6/2 mice which was reversed by the 8R10Q. […]: Micrographs (panel D) and (panel F) show the corresponding quantitation of the Nissl stained sections of the cortex and striatum, respectively. Note the decrease in the number of neurons, which was reversed by 8R10Q. N=3/group, each bar represents the average of 5 sections. Statistical analysis performed with one way ANOVA, *p<0.05; ***p<0.001, ns: not significant.
FIG. 8. Decrease in mHtt aggregates and glial pathology in 13-week-old R6/2 mice by 8R10Q peptide treatment. Panel A: Micrographs and corresponding quantitation (panel B) of the immunostained sections of cortex (CTX) and striatum with EM48 antibody. The brown dots show the mHtt aggregates. The left subpanels of panel B show the quantitative data with respect to the total area occupied by the aggregates, and the right, the intensity of individual aggregates. Panel C: Photographs of the immunofluorescent-stained sections of the cortex of R6/2 mice with anti-GFAP antibody. […] Panel E: Micrographs of the immunostained sections of the cortex (CTX) and striatum of WT and R6/2 mice with anti-Iba1 antibody. […] N=3/group. Each bar represented an average of 15 sections/mouse group. Statistics were performed with Student's t test for panels B and D, but with one way ANOVA, *p<0.05; **p<0.01; ***p<0.001, ns: not significant.
To correlate the beneficial effect with the aggregates of mHtt, immunohistochemistry was performed to calculate the areas occupied by the aggregates per unit area (150 μm^2). The method was selected because the frequent clustering of the aggregates into conglomerates rendered an accurate count of the aggregate number very difficult.

With “H-RRRRRRRRWDQQQQQQQQQQ-NH2 [Peptide 8R10Q, NH2-(R)8-W-D-(Q)10-CONH2]” the “Solubility (DMEM/10% FBS)” value ([1]; DMEM/10% FBS) was “Soluble”, the “solubility in water or culture medium” value ([1]; water or culture medium) was “highly soluble” and the “aggregated 109QmHtt by filter trap assay” value (109QmHtt [2]; 20 μM peptide added at 8 hours (T1) or 8 plus 24 hours (T1+T2) after transfection, vs water or 8R) was “significantly reduced”. For the same substance, the “aggregated 109QmHtt by filter trap assay” value (109QmHtt [2]; peptide added at 24 hours alone) was “no obvious effects”, the “ratio of the MG132:DMSO 109QmHtt” value (109QmHtt [3]) was “much higher” and the cell growth [4] was “ameliorated the reduction in growth”. For the same substance, the RA-induced neurite outgrowth [5] was “significantly reversed the defect in neurite outgrowth”, the cortical thickness (R6/2 transgenic mice; 13 week-old R6/2 mice) was “prevented cortical thinning” and the “loss of neurons in cortex and striatum” value (R6/2 transgenic mice; R6/2 mice, intranasal) was “significantly prevented”. The “intensity of mHtt aggregates” value (R6/2 transgenic mice; cortex and striatum) was “significantly decreased”, the tau signals (R6/2 transgenic mice; cortex and striatum of R6/2 mice) was “significantly enhanced” and the “decrease in areas of mHtt aggregates” value (R6/2 transgenic mice; cortex and striatum, vs PBS, EM48 immunohistochemistry) was roughly 60%. The “numbers of GFAP-positive astrocytes” value (R6/2 transgenic mice; cortex of R6/2 mice) was “significant decrease” and the “numbers of Iba-1-positive microglia” value (R6/2 transgenic mice; cortex of R6/2 mice) was “significant decrease”.
